Data taken from patent US20240317780A1, “RADIOPHARMACEUTICAL SOMATOSTATIN RECEPTOR LIGANDS AND PRECURSORS THEREOF” (Technische Universität München, priority 2021, published 2024).
Where a SMILES comes first, the peptide text is derived from it. Bridges are numbered along the chain shown (N, C = ends). [ ]: non-standard residue; d: D form. The star is where a group is joined. ξ: configuration not given here. Benzoyl(4-SiFtBu2) = CC(C)(C)[Si](F)(c1ccc(C(=O)*)cc1)C(C)(C)C; X1 = CC(C)(C)[Si](F)(c1ccc(C[N+](C)(C)CC(=O)*)cc1)C(C)(C)C; DO3AM = NC(=O)CN1CCN(CC(N)=O)CCN(CC(=O)*)CCN(CC(N)=O)CC1; ξW = NC(Cc1c[nH]c2ccccc12)C(=O)O; dDap = NC[C@@H](N)C(=O)O; ξF = NC(Cc1ccccc1)C(=O)O; ξD = NC(CC(=O)O)C(=O)O; ξDap = NCC(N)C(=O)O; ξC = NC(CS)C(=O)O

Experiments:
[1] = Octanol-water distribution coefficient (logD pH 7.4) of the labeled tracer; assay type: physicochemical; settings: n-octanol/PBS pH 7.4, room temperature
Procedure: Approximately 1 MBq of the labeled tracer was dissolved in 1 mL of a 1:1 mixture (by volumes) of phosphate buffered saline (PBS, pH 7.4) and n-octanol in an Eppendorf tube. After vigorous mixing of the suspension for 3 minutes at room temperature, the vial was centrifuged at 15000 g for 5 minutes (Biofuge 15, Heraus Sepatech, Osterode, Germany) and 100 μL aliquots of both layers were measured in a gamma counter. The experiment was repeated at least six times.

SST2 = biological target: T1, SST2 (Homo sapiens, UniProt P30874); assay: Determination of IC50: competitive binding against [125I]TOC on SST2-transfected CHO cells; settings: [125I]TOC reference radioligand, 60 min room temperature
T1 construct: expressed in transfected cells; host or cells: CHO (Chinese hamster ovary) cells
T1 sequence (P30874 whole entry, species assumed): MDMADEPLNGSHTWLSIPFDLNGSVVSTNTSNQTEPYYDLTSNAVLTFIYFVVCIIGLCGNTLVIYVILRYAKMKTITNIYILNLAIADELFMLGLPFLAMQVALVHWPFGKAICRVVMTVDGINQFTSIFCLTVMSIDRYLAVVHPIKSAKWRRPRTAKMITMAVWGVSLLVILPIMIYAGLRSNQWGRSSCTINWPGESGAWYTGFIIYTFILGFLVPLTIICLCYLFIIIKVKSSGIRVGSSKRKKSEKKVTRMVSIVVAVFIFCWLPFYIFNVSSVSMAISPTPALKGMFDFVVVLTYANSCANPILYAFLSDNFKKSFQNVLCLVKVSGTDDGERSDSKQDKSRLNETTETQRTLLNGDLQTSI

Structure (SMILES) | LogDpH=7.4 [1] | IC50 (SST2) [nM] | LogDpH=7.4 ([1]; listed as 36)
C[C@@H](O)[C@H](NC(=O)C1CSSCC(NC(=O)C(Cc2ccccc2)NC(=O)CNC(=O)CNC(=O)CNC(=O)C(CC(=O)O)NC(=O)[C@@H](CC(=O)O)NC(=O)C(CNC(=O)CN2CCN(CC(N)=O)CCN(CC(N)=O)CCN(CC(N)=O)CC2)NC(=O)C[N+](C)(C)Cc2ccc([Si](F)(C(C)(C)C)C(C)(C)C)cc2)C(=O)N[C@@H](Cc2ccc(O)cc2)C(=O)NC(Cc2c[nH]c3ccccc23)C(=O)N[C@@H](CCCCN)C(=O)N[C@@H]([C@@H](C)O)C(=O)N1)C(=O)O (stereo partly drawn) [[Pb]54] (X1-[ξDap](DO3AM)[dD][ξD]GGG[ξF][ξC]Y[ξW]KT[ξC]T-OH; disulfide 8-13) | −1.86 ± 0.04 | 4.24 ± 0.68 | –
C[C@@H](O)[C@H](NC(=O)C1CSSCC(NC(=O)C(Cc2ccccc2)NC(=O)CNC(=O)CNC(=O)[C@@H](CC(=O)O)NC(=O)C(CC(=O)O)NC(=O)[C@@H](CNC(=O)CN2CCN(CC(N)=O)CCN(CC(N)=O)CCN(CC(N)=O)CC2)NC(=O)C(CN)NC(=O)c2ccc([Si](F)(C(C)(C)C)C(C)(C)C)cc2)C(=O)N[C@@H](Cc2ccc(O)cc2)C(=O)NC(Cc2c[nH]c3ccccc23)C(=O)N[C@@H](CCCCN)C(=O)N[C@@H]([C@@H](C)O)C(=O)N1)C(=O)O (stereo partly drawn) [Ligand 36] ({Benzoyl(4-SiFtBu2)}-[ξDap][dDap](DO3AM)[ξD][dD]GG[ξF][ξC]Y[ξW]KT[ξC]T-OH; disulfide 8-13) | – | 7.05 ± 1.61 | −1.41 ± 0.07
C[C@@H](O)[C@H](NC(=O)C1CSSCC(NC(=O)C(Cc2ccccc2)NC(=O)CNC(=O)CNC(=O)[C@@H](CC(=O)O)NC(=O)C(CC(=O)O)NC(=O)[C@@H](CNC(=O)CN2CCN(CC(=O)O)CCN(CC(=O)O)CCN(CC(=O)O)CC2)NC(=O)c2ccc([Si](F)(C(C)(C)C)C(C)(C)C)cc2)C(=O)N[C@@H](Cc2ccc(O)cc2)C(=O)NC(Cc2c[nH]c3ccccc23)C(=O)N[C@@H](CCCCN)C(=O)N[C@@H]([C@@H](C)O)C(=O)N1)C(=O)O (stereo partly drawn) (natGa complex, metal not drawn) [[Ga]9] | −2.02 ± 0.04 | 63.3 ± 1.75 | –
